Consider five compounds from ChEMBL document CHEMBL6121044, “Discovery of Novel Spirocyclic MAT2A Inhibitors Demonstrating High In Vivo Efficacy in MTAP-Null Xenograft Models” (J Med Chem, 2025).

Series [1] concerns HCT-116. Description: Anti-tumor activity against human HCT-116 MATP(-/-) cells xenografted in mouse model assessed as tumor growth inhibition at 200 mg/kg QD relative to control. Type of series: functional. As to conditions: read-out: TGI. (In xenograft studies the graft and the host belong to different species.)
Series [2] deals with HCT-116. Description: Antiproliferative activity against MTAP-knock out human HCT-116 cells assessed as proliferation inhibition rate measured after 5 days by CTG assay. In kind it is functional, cell-based. The note with it: HCT-116, 120 h.
For series [3], the system named is HCT-116. Description: Antiproliferative activity against MTAP-knock out human HCT-116 cells assessed as maximal inhibition rate at 10 uM measured after 5 days by CTG assay relative to control. In kind it is functional. The note with it: time 5 day.
Series [4] can be described thus: Microsomal metabolic stability in human liver microsomes assessed as clearance. In kind it is ADME, Microsome. As to conditions: read-out: CLH. On the technique in general: Liver microsomes are a subcellular fraction often used to study metabolism.
Series [5] in a line: Microsomal metabolic stability in mouse liver microsomes assessed as clearance. Type of series: ADME, Microsome. The note with it: read-out: CLH.
Series [6] has as its target S-adenosylmethionine synthase isoform type-2 (Homo sapiens, UniProt P31153). The series can be described thus: Inhibition of MAT2A (unknown origin) assessed as release of inorganic phosphate using ATP/L-methionine pre-incubated for 30 mins followed by substrate addition measured after 2.5 hrs by colorimetric assay.
The nature of series [7]: Clearance in male ICR mouse at 10 mg/kg, po and 2 mg/kg, iv measured upto 24 hrs. In kind it is ADME, organism-based. The note with it: in vivo.
Series [8] in a line: Volume of distribution at steady state in male ICR mouse at 10 mg/kg, po and 2 mg/kg, iv measured upto 24 hrs. As to conditions: in vivo. In kind it is ADME, organism-based.
Series [9] is described as follows: Half life in male ICR mouse at 10 mg/kg, po and 2 mg/kg, iv measured upto 24 hrs. Type of series: ADME, organism-based. As to conditions: in vivo.
The nature of series [10]: AUC (0 to infinity) in male ICR mouse at 10 mg/kg, po and 2 mg/kg, iv measured upto 24 hrs. Type of series: ADME, organism-based. As to conditions: in vivo.
A short description of series [11]: Lipophilicity, log D of compound at pH 7.4 byHPLC method. As to conditions: buffer. Type of series: physicochemical.
Series [12] has as its system HCT-116. Description: Anti-tumor activity against human HCT-116 MATP(-/-) cells xenografted in mouse model assessed as tumor growth inhibition at 30 mg/kg QD relative to control. In kind it is functional. The note with it: read-out: TGI.

The structures appear in SMILES notation. pIC50: −log10 of the molar value. Bounds are passed on as bounds.

Sequence of S-adenosylmethionine synthase isoform type-2 (P31153 whole entry, canonical isoform): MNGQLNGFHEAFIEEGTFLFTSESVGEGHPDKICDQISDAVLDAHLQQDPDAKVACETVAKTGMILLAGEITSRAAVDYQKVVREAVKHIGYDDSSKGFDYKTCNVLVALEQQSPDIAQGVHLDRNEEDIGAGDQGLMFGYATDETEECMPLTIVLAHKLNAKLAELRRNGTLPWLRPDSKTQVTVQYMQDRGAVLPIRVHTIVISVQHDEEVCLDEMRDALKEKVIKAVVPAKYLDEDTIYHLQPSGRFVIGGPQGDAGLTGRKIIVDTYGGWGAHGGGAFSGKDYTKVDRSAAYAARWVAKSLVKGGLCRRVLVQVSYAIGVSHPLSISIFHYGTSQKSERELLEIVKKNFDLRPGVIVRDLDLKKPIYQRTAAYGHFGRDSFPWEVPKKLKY

On to `COc1ccc(-c2c(Nc3ccccn3)[nH]c3c(C4=CCCCC4)c(-c4ccccc4)nn3c2=O)cc1`, for which the inhibition in vivo at 200 mg/kg in [1] stood at 52%. For the same compound, the pIC50 (as a rule, the negative decadic logarithm of the IC50, by convention in mol/L) in [2] is 6.31. Moreover, the Imax in [3] is listed as 100%. In addition, the CLint scaled is under 9.3 mL/min/kg in series [4] and 40.3 mL/min/kg in [5].
Turning to `[2H]C([2H])([2H])NC1=NC(=O)C2(CCc3ncccc32)c2cc(C(F)(F)F)ccc21` (racemic), the results for the pIC50 in series [6] and in series [2] were 8.10 and 6.94, respectively. The Imax in series [3] is 92%. In addition, the CLint scaled in [4] was under 9.3 mL/min/kg; in series [5], 42.5 mL/min/kg. Moreover, the clearance in [7] worked out at 5.13 mL/min/kg. Further, the Vdss in series [8] was 1.39 L/kg. In series [9], the half-life (usually the time needed for the level to fall by half in the phase considered) worked out at 3.64 h. The AUC(0-inf) – broadly, the area under the concentration-time curve extrapolated to infinity – in series [10] was determined as 56700 ng·h/mL. In addition, in series [11], the logD (as a rule, the decadic logarithm of the distribution of all forms, ionised or not, between an organic phase and buffer at a given pH) came out at 1.82.
As to `CNC1=NC(=O)C2(CCc3ncccc32)c2cc(C(F)(F)F)ccc21` (racemic), the pIC50 in series [6] was 7.96; in [2], 7.01. The Imax in series [3] stood at 93.27%. In addition, the CLint scaled in [4] was under 9.3 mL/min/kg; in series [5] it was 51.2 mL/min/kg. Further, in series [7], the clearance worked out at 6.77 mL/min/kg. The Vdss in series [8] turned out to be 2.2 L/kg. The same compound yielded a half-life in [9] of 3.53 h. Further, the AUC(0-inf) in series [10] was 35200 ng·h/mL. In [11], the pH-dependent lipophilicity (logD) stood at 1.83.
For the compound `Cn1cnc2c(=O)n(-c3cccnc3C3CC3)c3cc(Cl)ccc3c21`, the inhibition in vivo at 30 mg/kg in [12] was found to be 82.9%.
Consider `NC1=NC(=O)C2(CCc3ncccc32)c2cc(C(F)(F)F)ccc21` (racemic), for which the negative-log IC50 (pIC50) is 8.40 in series [6] and 7.00 in [2]. For the same compound, the Imax in series [3] is reported as 75.59%. For the same compound, the CLint scaled in series [4] and in [5] was under 9.6 mL/min/kg each time. In [7], this compound showed a clearance of 8.48 mL/min/kg. The compound also displayed a Vdss in series [8] of 1.68 L/kg. Moreover, the half-life in series [9] came out at 1.92 h. Further, the AUC(0-inf) in series [10] worked out at 20400 ng·h/mL. The compound further gave a logD in series [11] of 1.76.
